Positions of bridges follow the written chain, without caps; N, C: chain ends. Non-standard residues stand in square brackets, D forms with d. Residues, ends and D or L forms follow the SMILES beside them. NMeF = CN[C@@H](Cc1ccccc1)C(=O)O

In assay [1] the target is T1, S. aureus-derived recombinant SrtA (Staphylococcus aureus, UniProt Q2FV99).
T1 construct: made in house; host or cells: E. coli
In words: biochemical.

For the next assay, the system named is Bacillus cereus. Also on record: method as in PMID 25001296. The note with it: cited from earlier work.
In assay [2] the test system is Staphylococcus epidermidis. The arrangement: method as in PMID 25001296. The conditions noted are these: cited from earlier work.
Assay [3] has as its target T2, recombinant ICL from C. albicans (Candida albicans, UniProt Q9P8Q7).
T2 construct: made in house
Nature of the assay: ICL inhibition assay. It counts as biochemical. The note with it: 37 °C, 30 min. How it is done: The recombinant ICL from C. albicans was prepared and the inhibitory activity of the test compounds against ICL was determined by previously documented procedures. […] The increase in intensity of absorbance resulting from the formation of glyoxylate phenylhydrazone was observed using an UVmini-1240 spectrophotometer (SHIMADZU, Tokyo, Japan) at a wavelength of 324 nm. A known ICL inhibitor, 3-nitropropionic acid, was used as a reference control.

Assay [4] deals with isocitrate lyase (ICL) derived from C. albicans. The arrangement: method as in PMID 31167388. The conditions noted are these: previously reported; cited from earlier work.

T1 sequence (Q2FV99 whole entry): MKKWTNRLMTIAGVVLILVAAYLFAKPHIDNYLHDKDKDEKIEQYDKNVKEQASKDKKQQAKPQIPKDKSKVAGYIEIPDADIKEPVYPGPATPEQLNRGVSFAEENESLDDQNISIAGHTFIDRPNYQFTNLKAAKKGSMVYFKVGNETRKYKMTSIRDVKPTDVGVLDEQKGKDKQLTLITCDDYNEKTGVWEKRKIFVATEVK
T2 sequence (Q9P8Q7 whole entry): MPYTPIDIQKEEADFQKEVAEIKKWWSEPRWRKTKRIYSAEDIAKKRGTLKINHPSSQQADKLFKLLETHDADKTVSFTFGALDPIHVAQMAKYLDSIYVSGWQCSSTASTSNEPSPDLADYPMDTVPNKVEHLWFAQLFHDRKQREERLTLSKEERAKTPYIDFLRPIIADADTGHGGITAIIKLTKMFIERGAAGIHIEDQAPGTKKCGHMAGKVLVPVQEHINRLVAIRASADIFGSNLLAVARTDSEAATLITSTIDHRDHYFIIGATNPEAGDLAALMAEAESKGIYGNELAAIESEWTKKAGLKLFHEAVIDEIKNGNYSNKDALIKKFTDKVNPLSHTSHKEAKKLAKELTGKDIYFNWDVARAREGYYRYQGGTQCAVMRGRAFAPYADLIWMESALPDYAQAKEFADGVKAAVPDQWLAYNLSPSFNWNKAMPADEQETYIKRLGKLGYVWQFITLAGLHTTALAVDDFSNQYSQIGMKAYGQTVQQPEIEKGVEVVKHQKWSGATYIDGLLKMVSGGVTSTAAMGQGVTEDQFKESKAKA

Consider `CC(=O)N[C@@H]1C(=O)N[C@H](C(C)C)C(=O)N2CCC[C@H]2C(=O)N[C@@H](Cc2ccc(O)cc2)C(=O)N(C)[C@@H](Cc2ccccc2)C(=O)N[C@@H](C)C(=O)O[C@@H]1C` [Compound 3, FJ120DPA] (Ac-T[dV]PY[NMeF]A; ester 1-C), for which, in assay [1], the IC50 (as a rule, the concentration needed to halve the response being measured) was found to be 132 µM.

For `COc1ccc2cc3[n+](cc2c1OC)CCc1cc2c(cc1-3)OCO2` [Berberine chloride], the IC50 in assay [1] was determined as 104 µM. For asperpeptide A, the MIC (in the assay on Bacillus cereus; in assay [2]) was 12.5 µM each time.

`CC(C)[C@@H]1NC(=O)[C@@H]2CCCN2C(=O)[C@H](Cc2ccc(O)cc2)NC(=O)[C@H](Cc2ccccc2)N(C)C(=O)[C@H](C)NC1=O` [Compound 2, JG002CPB] (cyclo(A[NMeF]YPV)): the IC50 in assay [1] is 53.1 µM; in assay [3] it was 117 µM. As for `CC(=O)N[C@H](C(=O)N[C@@H](C(=O)N1CCC[C@H]1C(=O)N[C@@H](Cc1ccc(O)cc1)C(=O)N(C)[C@@H](Cc1ccccc1)C(=O)N[C@@H](C)C(=O)O)C(C)C)[C@@H](C)O` [Compound 4, FJ120DPB] (Ac-T[dV]PY[NMeF]A-OH), the IC50 in assay [1] came out at 77 µM. As to `CC(C)[C@@H]1NC(=O)[C@H](Cc2ccccc2)NC1=O` [cyclo(L-Phe-L-Val)], the half-inhibitory concentration (IC50) in assay [4] is 110 µM.

With `O=C(O)CC[N+](=O)[O-]` [3-Nitropropionic acid], in assay [3], the 50% inhibitory concentration (IC50) was 18.5 µM.

`CC(C)C[C@@H]1NC(=O)[C@@H]2CCCN2C(=O)[C@H](Cc2ccc(O)cc2)NC(=O)[C@H](Cc2ccccc2)N(C)C(=O)[C@H](C)NC1=O` [Compound 1, JG002CPA] (cyclo(A[NMeF]YPL)): in assay [1], the IC50 worked out at 70 µM.

The values are drawn from paper PMC6780696, “New Peptides from The Marine-Derived Fungi Aspergillus allahabadii and Aspergillus ochraceopetaliformis” (Marine Drugs, 2019).
